Measured values taken from ChEMBL document CHEMBL4177627, “Discovery and evaluation of Cav3.1-selective T-type calcium channel blockers” (Bioorg Med Chem Lett, 2017).
Converted amounts (≈) assume the structure as drawn.

Tests used:
[1] = Solubility of the compound in aqueous medium at pH 7; format: physicochemical
[2] = Intrinsic clearance in rat liver microsomes assessed per mg protein; format: ADME, microsome; details: read-out: CLH
[3] = Unbound plasma concentration in Wistar rat at 100 mg/kg, po measured after 1 hr; format: ADME, organism-based; details: in vivo
[4] = Drug level in Wistar rat brain at 100 mg/kg, po measured after 1 hr; format: ADME, organism-based; details: read-out: Drug uptake
[5] = Plasma concentration in Wistar rat at 100 mg/kg, po measured after 1 hr; format: ADME, organism-based

Row | solubility ([1]; buffer) | microsomal CLint [2] [µL/min/mg] | Cp(f) [3] [nM] | concentration at 1 h [4] [nM] | solubility ([1]; aqueous medium, read-out: solubility) [µg/mL] | concentration at 1 h [5] [nM] | Compound
1 | Soluble | – | – | – | – | – | CCN(CC)CCc1c(C(=O)NCc2ccccc2OCC(F)(F)F)nn(-c2ccccc2)c1-c1ccccc1
2 | – | 377 | 4.9 | 80 | 429 (≈ 821 µM) | 810 | CCNCCc1c(C(=O)NCc2ccccc2OCC(F)(F)F)nn(-c2ccccc2)c1-c1ccccc1
3 | Soluble | – | – | – | – | – | O=C(NCc1ccccc1OCC(F)(F)F)c1nn(-c2ccccc2)c(-c2ccccc2)c1CCNC1CC1
